According to ChEMBL document CHEMBL5579884, “Cellular, Structural Basis, and Recent Progress for Targeting Murine Double Minute X (MDMX) in Tumors” (J Med Chem, 2024):
Each block holds one molecule with its values, some of them ahead of it.

Columns and labels:
[1] = tested on: ZR-75-1; assay: Cytotoxicity against human ZR-75-1 cells assessed as reduction in cell growth
[2] = tested on: KATO III stomach cancer cell line; assay: Cytotoxicity against human KATO III stomach cancer cell line assessed as reduction in cell growth incubated for 48 hrs by MTT assay
[3] = tested on: BGC-823; assay: Cytotoxicity against human BGC-823 cells assessed as reduction in cell growth incubated for 48 hrs by MTT assay; details: BGC-823, 48 h
[4] = tested on: BT-549; assay: Cytotoxicity against human BT-549 cells assessed as cell growth inhibition
[5] = tested on: Hs-578T; assay: cells; details: Homo sapiens
Description: Cytotoxicity against human Hs-578T cells assessed as cell growth inhibition

[6] = tested on: ZR-75-30; assay: Cytotoxicity against human ZR-75-30 cells assessed as reduction in cell growth
[7] = tested on: NCI-N87; assay: Cytotoxicity against human NCI-N87 cells assessed as reduction in cell growth incubated for 48 hrs by MTT assay; details: NCI-N87, 48 h
[8] = tested on: SGC-7901; assay: Cytotoxicity against human SGC-7901 cells assessed as reduction in cell growth incubated for 48 hrs by MTT assay; details: SGC-7901, 48 h
[9] = tested on: MCF7; assay: Cytotoxicity against human MCF7 cells assessed as reduction in cell growth
[10] = tested on: MDA-MB-175-VII; assay: cells; details: Homo sapiens
Description: Cytotoxicity against human MDA-MB-175-VII cells assessed as reduction in cell growth

[11] = tested on: MKN-45; assay: Cytotoxicity against human MKN-45 cells assessed as reduction in cell growth incubated for 48 hrs by MTT assay; details: MKN-45, 48 h
[12] = tested on: Prostatic carcinoma cell; assay: Cytotoxicity against human Prostatic carcinoma cell
[13] = tested on: HGC-27; assay: Cytotoxicity against human HGC-27 cells assessed as reduction in cell growth incubated for 48 hrs by MTT assay; details: HGC-27, 48 h
[14] = tested on: BT-474; assay: Cytotoxicity against human BT-474 cells assessed as cell growth inhibition
[15] = tested on: SW480; assay: Antiproliferative activity against human SW480 cells assessed as reduction in cell growth
[16] = tested on: LNCaP; assay: Antiproliferative activity against human LNCaP cells assessed as reduction in cell growth
[17] = tested on: DU-145; assay: Antiproliferative activity against human DU-145 cells assessed as reduction in cell growth
[18] = tested on: PC-3; assay: Antiproliferative activity against human PC-3 cells assessed as reduction in cell growth
[19] = tested on: RKO; assay: Antiproliferative activity against human RKO cells assessed as reduction in cell growth
[20] = tested on: MCF7; assay: Antiproliferative activity against human MCF7 cells assessed as reduction in cell growth
[21] = tested on: HCT-116; assay: Antiproliferative activity against human HCT-116 cells assessed as reduction in cell growth by MTT assay
[22] = tested on: LNCaP C4-2; assay: Antiproliferative activity against human C4-2 cells assessed as reduction in cell growth
[23] = tested on: LAPC4; assay: Antiproliferative activity against human LAPC4 cells assessed as reduction in cell growth
[24] = tested on: MDA-MB-435; assay: Antiproliferative activity against human MDA-MB-435 cells assessed as reduction in cell growth
[25] = tested on: MCF7; assay: Antiproliferative activity against human MCF7 cells assessed as reduction in cell viability measured for 48 hrs by MTT assay; details: MCF7, 48 h
[26] = tested on: HCT-116; assay: Antiproliferative activity against human HCT-116 cells assessed as reduction in cell viability measured for 48 hrs by MTT assay; details: HCT-116, 48 h
[27] = target: T1, Protein Mdm4 (Homo sapiens, UniProt O15151); assay: Inhibition of MDMX (unknown origin)
T1 sequence (O15151 whole entry): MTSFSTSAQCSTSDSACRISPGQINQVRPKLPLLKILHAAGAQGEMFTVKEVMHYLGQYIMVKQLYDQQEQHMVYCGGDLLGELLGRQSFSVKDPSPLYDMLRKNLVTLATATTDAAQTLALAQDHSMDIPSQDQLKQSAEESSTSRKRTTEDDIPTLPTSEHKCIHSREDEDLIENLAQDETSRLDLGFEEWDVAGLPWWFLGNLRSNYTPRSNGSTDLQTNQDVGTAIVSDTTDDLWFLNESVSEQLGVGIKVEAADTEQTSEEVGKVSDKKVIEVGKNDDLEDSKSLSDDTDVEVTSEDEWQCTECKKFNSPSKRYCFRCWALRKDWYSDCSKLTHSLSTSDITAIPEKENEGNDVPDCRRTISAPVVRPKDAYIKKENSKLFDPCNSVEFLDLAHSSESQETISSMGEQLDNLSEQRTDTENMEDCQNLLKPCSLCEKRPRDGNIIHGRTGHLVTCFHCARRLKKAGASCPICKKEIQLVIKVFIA

[28] = tested on: OCI-AML-3; assay: Antiproliferative activity against human OCI-AML-3 cells assessed as reduction in cell viability measured for 48 hrs by MTT assay; details: OCI-AML-3, 48 h
[29] = tested on: A549; assay: Antiproliferative activity against human A549 cells assessed as reduction in cell viability measured for 48 hrs by MTT assay; details: A549, 48 h
[30] = target: T2, E3 ubiquitin-protein ligase Mdm2 (Homo sapiens, UniProt Q00987); assay: Inhibition of MDM2 (unknown origin)
[31] = target: T2, E3 ubiquitin-protein ligase Mdm2; assay: Binding affinity to MDM2 (unknown origin) assessed as dissociation constant
[32] = tested on: HCT-116; assay: Antiproliferative activity against human HCT-116 cells assessed as reduction in cell viability incubated for 24 hrs by Celltiter-Glo assay; details: HCT-116, 24 h
[33] = Antiproliferative activity against human C20/A4 cells assessed as reduction in cell growth incubated for 72 hrs by MTS assay
[34] = Antiproliferative activity against human U373 MG cells assessed as reduction in cell growth incubated for 72 hrs by MTS assay
[35] = tested on: U-87 MG; assay: Antiproliferative activity against human U-87 MG cells assessed as reduction in cell growth incubated for 72 hrs by MTS assay
[36] = tested on: T98G; assay: Antiproliferative activity against human T98G cells assessed as reduction in cell growth incubated for 72 hrs by MTS assay
[37] = tested on: MCF7; assay: Antiproliferative activity against human MCF7 cells assessed as reduction in cell growth incubated for 72 hrs by MTS assay; details: MCF7, 72 h
[38] = tested on: Breast cancer cell line; assay: Cytotoxicity against human Breast cancer cell line
[39] = Cytotoxicity against human Triple-negative breast cancer cell; details: Breast carcinoma cell
[40] = tested on: DU-145; assay: Antiproliferative activity against human DU-145 cells assessed as reduction in cell viability incubated for 24 hrs by Celltiter-Glo assay; details: DU-145, 24 h
[41] = Antiproliferative activity against human IMR-90 cells assessed as reduction in cell viability incubated for 24 hrs by Celltiter-Glo assay
[42] = tested on: PC-3; assay: Antiproliferative activity against human PC-3 cells assessed as reduction in cell viability incubated for 24 hrs by Celltiter-Glo assay; details: PC-3, 24 h
[43] = tested on: LNCaP; assay: Antiproliferative activity against human LNCaP cells assessed as reduction in cell viability incubated for 24 hrs by Celltiter-Glo assay
[44] = Antiproliferative activity against human RWPE-1 cells assessed as reduction in cell viability incubated for 24 hrs by Celltiter-Glo assay
[45] = tested on: L02; assay: Antiproliferative activity against human L02 cells assessed as reduction in cell growth
[46] = tested on: SJSA-1; assay: Antiproliferative activity against human SJSA-1 cells assessed as reduction in cell growth
[47] = tested on: SH-SY5Y; assay: Antiproliferative activity against human SH-SY5Y cells assessed as reduction in cell growth
[48] = tested on: HCT-116; assay: Antiproliferative activity against human HCT-116 cells assessed as reduction in cell growth
[49] = Antiproliferative activity against human BEAS-2B cells assessed as reduction in cell growth
[50] = tested on: MCF7; assay: Antiproliferative activity against human MCF7 cells assessed as reduction in cell viability incubated for 24 hrs by Celltiter-Glo assay; details: MCF7, 24 h
[51] = tested on: HL-60; assay: Antiproliferative activity against human HL-60 cells assessed as reduction in cell viability incubated for 24 hrs by Celltiter-Glo assay; details: HL-60, 24 h
[52] = target: T2, E3 ubiquitin-protein ligase Mdm2; assay: Binding affinity to MDM2 (unknown origin) assessed as inhibition constant
[53] = tested on: OCI-AML2; assay: Antiproliferative activity against human OCI-AML2 cells assessed as reduction in cell viability incubated for 24 hrs by Celltiter-Glo assay; details: OCI-AML2, 24 h
[54] = target: T1, Protein Mdm4; assay: Binding affinity to MDMX (unknown origin) assessed as inhibition constant
[55] = target: T2, E3 ubiquitin-protein ligase Mdm2
[56] = target: T1, Protein Mdm4

T2 sequence (Q00987 whole entry): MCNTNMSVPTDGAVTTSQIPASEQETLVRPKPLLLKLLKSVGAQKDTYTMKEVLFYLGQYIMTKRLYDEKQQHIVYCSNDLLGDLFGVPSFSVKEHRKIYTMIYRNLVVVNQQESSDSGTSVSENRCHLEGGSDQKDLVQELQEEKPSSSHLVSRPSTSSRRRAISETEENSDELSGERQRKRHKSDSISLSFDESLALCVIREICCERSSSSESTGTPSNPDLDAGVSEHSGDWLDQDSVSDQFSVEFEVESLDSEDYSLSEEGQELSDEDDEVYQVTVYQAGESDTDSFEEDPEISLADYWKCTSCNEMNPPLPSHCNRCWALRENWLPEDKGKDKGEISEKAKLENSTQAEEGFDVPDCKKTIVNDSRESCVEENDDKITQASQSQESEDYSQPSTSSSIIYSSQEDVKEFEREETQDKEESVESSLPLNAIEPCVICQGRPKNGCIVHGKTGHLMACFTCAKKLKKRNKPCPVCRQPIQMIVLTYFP

Molecule: Cc1c2ccccc2c(CSC(=N)N)c2ccccc12
- IC50 [1]: 1.5 µM
- IC50 [2]: 1.2 µM
- IC50 [3]: 1.2 µM
- IC50 [4]: 1.5 µM
- IC50 [5]: 1.5 µM
- IC50 [6]: 1.5 µM
- IC50 [7]: 1.2 µM
- IC50 [8]: 1.2 µM
- IC50 [9]: 1.5 µM
- IC50 [10]: 1.5 µM
- IC50 [11]: 1.2 µM
- IC50 [12]: 1.5 µM
- IC50 [13]: 1.2 µM
- IC50 [14]: 1.5 µM

Molecule: Cc1c(Cl)ccc2c(/C=C3\NC(=O)N(C(C(=O)NC(CO)CO)c4ccc(F)c(F)c4)C3=O)c[nH]c12 (stereo not given)
- IC50 [15]: > 50 µM
- IC50 [16]: 1.1 µM
- IC50 [17]: 45.5 µM
- IC50 [18]: 45.3 µM
- IC50 [19]: 3.2 µM
- IC50 [20]: 3.5 µM
- IC50 [21]: 3 µM
- IC50 [22]: 1.7 µM
- IC50 [23]: 1.2 µM
- IC50 [24]: 25.3 µM

Molecule: CC(C)C(=O)Nc1ccccc1SC(=O)C(C)C
- IC50 [25]: 18 µM
- IC50 [26]: 16 µM
- IC50 [27]: 1.5 µM
- IC50 [28]: 18 µM
- IC50 [29]: > 30 µM
- IC50 [30]: 13.1 µM

- Kd [31]: < 0.0001 µM
Molecule: C[C@@H](c1ccc(Cl)cc1Cl)n1cnc(-c2ccccc2)c1-c1c(C(=O)Nc2cc(C(=O)O)ccc2N2CCC(N3CCCOC3=O)CC2)[nH]c2cc(Cl)ccc12

Molecule: Cc1ccnc(NC(c2cccc(Cl)c2Cl)c2ccc3cccnc3c2O)c1 (stereo not given)
- IC50 [32]: 0.6 µM

Molecule: Cc1c(Cl)ccc2c(/C=C3\NC(=O)N(Cc4ccc(F)c(F)c4)C3=O)c[nH]c12
- IC50 at 72 h [33]: 4.5 µM
- IC50 [34]: 1 µM
- IC50 [35]: 1.4 µM
- IC50 [36]: > 10 µM
- IC50 [37]: 1.9 µM

Molecule: Brc1c2ccccc2c(C[P+](c2ccccc2)(c2ccccc2)c2ccccc2)c2ccccc12
- IC50 [38]: 3.7 µM
- IC50 [39]: 3.7 µM

Molecule: C=C1C(=O)O[C@H]2C[C@H](C)[C@@]34C[C@]5(C(=O)OC6CC(C)=C([C@H](C)CCCOC(C)=O)[C@@H](O)C65)[C@@H](C(C)=C3C[C@H]12)C4OC(C)=O (stereo not given in full)
- IC50 [40]: 4 µM
- IC50 at 24 h [41]: > 50 µM
- IC50 [42]: 1.3 µM
- IC50 [43]: 1.7 µM

Molecule: COC(C)(C)CCC[C@](C)(O)[C@H]1CC[C@]2(C)[C@@H]1[C@H](O)C[C@@H]1[C@@]3(C)CC[C@H](O)C(C)(C)[C@@H]3CC[C@]12C
- IC50 [40]: 7.6 µM
- IC50 [42]: 4.4 µM
- IC50 [43]: 9.6 µM
- IC50 at 24 h [44]: > 50 µM

Molecule: CN(C)C1CCN(C(=O)CCC(=O)C(c2ccc(Cl)cc2)C(C(=O)c2ccc(Cl)cc2)c2ccc(F)cc2Cl)CC1 (stereo not given)
- IC50 [45]: 15.9 µM
- IC50 [46]: 0.6 µM
- IC50 [47]: 0.5 µM
- IC50 [48]: 0.7 µM
- IC50 [49]: 18 µM

- IC50 [30]: > 50 µM
Molecule: COc1cccc2c1NCC2C(=O)N[C@H]1CCN(c2ccc(C)cc2)C1 (stereo not given in full)

Molecule: N#Cc1c2ccc(N)cc2nc2cc(N)ccc12
- IC50 [25]: 4.3 µM
- IC50 [26]: 2.8 µM
- IC50 [28]: 1.3 µM
- IC50 [29]: 5.3 µM

Molecule: O=C(CCC(=O)N1CCNCC1)C(c1ccc(Cl)cc1)C(C(=O)c1ccc(Cl)cc1)c1ccc(F)cc1Cl (stereo not given)
- IC50 [45]: 12.6 µM
- IC50 [46]: 0.6 µM
- IC50 [47]: 0.7 µM
- IC50 [48]: 0.7 µM
- IC50 [49]: 16.3 µM

Molecule: O=c1cc(-c2ccc(Oc3c(O)cc4oc(-c5ccc(O)cc5)cc(=O)c4c3O)cc2)oc2cc(O)cc(O)c12 [HINOKIFLAVONE]
- IC50 [50]: 16.3 µM
- IC50 [51]: 11 µM
- Ki [52]: 13 µM
- IC50 [53]: 4.9 µM
- IC50 [32]: 14.2 µM
- Ki [54]: 12 µM

- Kd [55]: 149 µM
Molecule: Ac-ETFLDLWKLELEN-NH2

- Kd [56]: 109 µM
Molecule: Ac-ETFLDLWRLLLQN-NH2
